Data reported in patent US20240109934A1, “ANTIBIOTICS WITH IMPROVED DRUG RESISTANCE PROFILE” (priority 2021, published 2024).

Legend:
[1] = cited from earlier work
Mouse MTD / tolerability = conditions: mice
Description: The protocol was approved by the IACUC at the University of Illinois at Urbana-Champaign (Protocol Number: 16144 and 19181). In these studies, 10- to 12-week-old female C57BL/6 mice purchased from Charles River were used. The maximum tolerated dose (MTD) of single compound was determined first. […] All the mice were monitored for signs of toxicity for 2 weeks. For multiple doses, the compound was given by daily IP for 4 consecutive days, and mice were monitored for signs of toxicity for 1 month. MTD was the highest dosage with acceptable toxicity (e.g., <20% weight loss).

| SMILES | Half-life in humans ([1]; in vivo) [h] | Cmax (drug plasma level) ([1]; patients, front-loading regimen 3 g first day, 1.2 g daily thereafter) | Tolerability (Mouse MTD / tolerability; 50 mg/kg IP once-a-day for 4 consecutive days) | Tolerability (Mouse MTD / tolerability; single dose of 50 mg/kg, IP injection) |
| --- | --- | --- | --- | --- |
| CC(=O)O[C@H]1C[C@@]2(C)[C@@H](C[C@@H](O)[C@H]3[C@@]4(C)CC[C@@H](O)[C@@H](C)[C@@H]4CC[C@@]32C)/C1=C(\CCC=C(C)C)C(=O)O [FA, Fusidic acid] | 10 to 14 | greater than 130 μg/mL | – | – |
| CC(=O)O[C@H]1C[C@@]2(C)[C@@H](C[C@@H](O)[C@H]3[C@@]4(C)CC[C@@H](O)[C@@H](C)[C@@H]4CC[C@@]32C)/C1=C(\CCC=C1CCCC1)C(=O)O [FA-CP, (Z)-2-((3R,4S,5S,8S,9S,10S,11R,13R,14S,16S)-16-acetoxy-3,11-dihydroxy-4,8,10,14-tetramethylhexadecahydro-17H-cyclopenta[a]phenanthren-17-ylidene)-5-cyclopentylidenepentanoic acid] | – | – | well tolerated | well tolerated |
